Experiment [1] concerns PS19-fE4/GFAP-Cre primary neurons. Briefly: Recombinant protein treatment of primary neurons, APOE sandwich ELISA of cell lysates. The class given is cell-based, mouse. The note with it: 10 μg/mL recombinant protein, 24 hours, day 14 in vitro. Here is the method:
(§1) Biochemically extracted mouse hippocampal tissue lysates were diluted in Milli-Q H2O to the appropriate concentration and were run according to the provided manufacturer protocols (human APOE (Abcam); mouse HMGB1 (Novus Biologicals). Reactions of samples were read on a SpectraMaX M5 spectrophotometer (Molecular Devices) and protein concentrations were determined after interpolating a standard curve and adjusting for dilutions.
(§2) Primary cultures of neurons were prepared from prenatal E20 pups of various genotypes. After collecting pup brains, the cortex plus hippocampus were isolated and placed in ice-cold dissociation media+kyneurenic acid media (DM/KY) (DM:Na2SO4 (81.8 mM); K2SO4 (30 mM); MgCl2 (5.8 mM), CaCl2) (0.25 mM); HEPES (1 mM); glucose (20 mM); phenol red (0.001%); NaOH (0.16 mM) in distilled H2O) (KY: kynurenic acid (10 mM); phenol red (0.0025%); HEPES (5 mM); MgCl2 (100 mM); NaOH (add dropwise until pH 7.4). The resulting DM/KY media was made by combining 90% DM with 10% KY media. The isolated tissue was finely minced and then submerged in pre-warmed Papain solution (1 mL per brain) for 13 minutes while gently inverting and then submerged in trypsin inhibitor solution for 5 minutes (5 mL for up to 10 brains) while gently inverting. The tissue pellet was washed with Optimem/Glucose solution (20 mM glucose, 1 mL per brain) while gently inverting. Then, fresh Optimem/Glucose solution was added and tissue was gently triturated until separated into single cells. After filtering the cells through a 40 um cell strainer, the dissociated cells were plated at 1×10^6 cells/well of a 12-well plate or 3×10^5 cells/well of a 24-well plate in Neurobasal medium supplemented with B27, 100 U/mL^−1 of penicillin G, 100 µg/mL^−1 of streptomycin, and 1% GlutaMAX (B27/Neurobasal). Every 3-4 days, half of the media was removed and replaced with fresh B27/Neurobasal media. In some experiments, primary neurons were treated with either a Dulbecco's PBS (dPBS) vehicle or a recombinant protein of interest (10 μg/mL for one well of a 12-well plate) for 24 hours at day 14 in vitro. […]
(§3) The inventors hypothesized that astrocytic APOE4 may regulate neuronal APOE4 expression by promoting the release of these factors that activate the neuronal ERK pathway, leading to increased neuronal APOE4 expression. […] The APOE protein levels were then quantitatively evaluated in the primary neuronal cell lysates by sandwich ELISA.
(§4) Experiments were also performed to determine whether HMGB1 is a potential modulatory factor of neuronal APOE4 expression. As such, primary neurons isolated from PS19-fE4/GFAP-Cre and PS19-fE4 mice were treated with 10 μg/mL of recombinant HMGB1 protein or a dPBS control and the APOE protein levels were quantitatively evaluated in cell lysates by sandwich ELISA.

A further experiment deals with PS19-fE4 primary neurons. The experiment is described as above. The class given is cell-based, mouse. Conditions: 10 μg/mL recombinant protein, 24 hours, day 14 in vitro. Here is the method:
as §1, §2, §3, §4

Turning to “DPP10: recombinant DPP10 protein used to treat primary neurons”, the “increase in APOE protein levels relative to the dPBS control” value in experiment [1] came to 98%. The “APOE protein levels in cell lysates vs dPBS control” value with PS19-fE4 primary neurons was “no significant difference in APOE levels”.

B1: HMGB1: recombinant HMGB1 protein used to treat primary neurons (protein, listed as Homo sapiens)
chain: MGKGDPKKPRGKMSSYAFFVQTCREEHKKKHPDASVNFSEFSKKCSERWKTMSAKEKGKFEDMAKADKARYEREMKTYIPPKGETKKKFKDPNAPKRPPSAFFLFCSEYRPKIKGEHPGLSIGDVAKKLGEMWNNTAADDKQPYEKKAAKLKEKYEKDIAAYRAKGKPDAAKKGVVKAEKSKKKKEEEEDEEDEEDEEEEEDEEDEDEEEDDDDE
For B1, the “APOE protein levels in cell lysates vs dPBS control” value (in experiment [1]; in the experiment on PS19-fE4 primary neurons) was “A significant difference was not observed” throughout.

For the origin of these results see US20250262230A1, “HMGB1 Inhibitors for Treatment of APOE4-related Tauopathies including Alzheimer’s Disease” (The J. David Gladstone Institutes, a testamentary trust …, priority 2022, published 2025).
